*1 amine or outer side, *2 acyl side, *3 side chain or, on linkers, in order; H or OH if unused. Where a SMILES comes first, the peptide text is derived from it. Side-chain parts run from the residue outwards. [ ]: non-standard residue; d: D form. The star is where a group is joined. PEG12 = NCCOCCOCCOCCOCCOCCOCCOCCOCCOCCOCCOCCOCCC(=O)O; γGlu = O=C(O)[C@H](CCC(=O)[*:2])N[*:1]; 1Nal = N[C@@H](Cc1cccc2ccccc12)C(=O)O; Stearoyl = CCCCCCCCCCCCCCCCCC(=O)*; Palmitoyl = CCCCCCCCCCCCCCCC(=O)*; Cit = NC(=O)NCCC[C@H](N)C(=O)O; αMeK = C[C@](N)(CCCCN)C(=O)O; Nle = CCCC[C@H](N)C(=O)O; AEEA = NCCOCCOCC(=O)O; Aib = CC(C)(N)C(=O)O
Molecular target: T1, RXFP1 (Homo sapiens, UniProt Q9HBX9)
T1 construct: OVCAR5 cells expressing endogenous RXFP1; endogenous in cells; host or cells: OVCAR5 cells
T1 sequence (Q9HBX9 1-757): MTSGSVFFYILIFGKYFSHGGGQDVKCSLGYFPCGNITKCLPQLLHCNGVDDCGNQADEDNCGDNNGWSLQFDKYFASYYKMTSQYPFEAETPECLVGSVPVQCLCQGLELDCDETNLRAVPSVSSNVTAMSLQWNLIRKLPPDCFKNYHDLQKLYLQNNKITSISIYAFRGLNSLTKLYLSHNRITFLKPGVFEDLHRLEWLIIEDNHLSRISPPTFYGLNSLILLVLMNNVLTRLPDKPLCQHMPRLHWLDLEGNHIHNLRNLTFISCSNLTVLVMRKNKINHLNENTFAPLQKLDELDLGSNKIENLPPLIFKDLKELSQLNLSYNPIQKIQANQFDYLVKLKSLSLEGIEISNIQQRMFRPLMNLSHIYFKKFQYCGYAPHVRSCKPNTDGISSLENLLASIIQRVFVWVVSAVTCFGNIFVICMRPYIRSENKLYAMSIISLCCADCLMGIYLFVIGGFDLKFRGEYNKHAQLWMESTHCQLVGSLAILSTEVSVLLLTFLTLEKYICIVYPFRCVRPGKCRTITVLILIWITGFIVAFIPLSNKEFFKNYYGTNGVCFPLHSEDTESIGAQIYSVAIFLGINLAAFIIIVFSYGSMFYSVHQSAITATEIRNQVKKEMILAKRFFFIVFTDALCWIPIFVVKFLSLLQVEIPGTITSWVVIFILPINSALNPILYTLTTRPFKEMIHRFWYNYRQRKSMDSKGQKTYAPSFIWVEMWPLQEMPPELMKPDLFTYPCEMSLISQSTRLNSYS
Test: OVCAR5 cAMP assay (HTRF), RXFP1 agonist activity
Format: cell-based
Settings: for Emax: OVCAR-5, maximal cAMP relative to H2-relaxin maximum (100%), read-out: EMax, OVCAR 5 cells (cAMP); for EC50: OVCAR5 cells, cAMP HTRF, read-out: EC50 (nM), OVCAR 5 cells (cAMP)
Summary of the method: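 cAMP accumulation readout: after 1 mM IBMX for 40 min, endogenous-RXFP1 OVCAR5 cells got rising peptide concentrations without FCS, 30 min, 37° C, then lysis with HTRF cAMP reagents. Nonlinear regression gave EC50; Emax expressed relative to H2-relaxin maximum, same occasion.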

| Emax [%] | EC50 [nM] | SMILES |
| --- | --- | --- |
| 91 | – | CCCCCCCCCCCCCCCCCC(=O)N[C@@H](CCC(=O)N[C@@H](CCC(=O)N[C@@H](CCC(=O)NCCOCCOCC(=O)NCCOCCOCC(=O)NCCOCCOCC(=O)NCCCC[C@H](NC(=O)[C@H](CCCCNC(C)=O)NC(=O)[C@H](C)NC(=O)[C@H](CCCNC(N)=O)NC(=O)C(C)(C)NC(=O)[C@H](CO)NC(=O)[C@H](Cc1c[nH]c2ccccc12)NC(=O)[C@@H](NC(=O)[C@H](CO)NC(=O)[C@H](CCCC)NC(=O)CNC(=O)[C@H](CCC(=O)O)NC(=O)C(C)(C)NC(=O)C(C)(C)NC(=O)[C@@H](NC(=O)[C@H](CCCCNC(C)=O)NC(=O)[C@H](C)NC(=O)[C@H](CCCNC(=N)N)NC(=O)[C@@H](NC(=O)[C@H](CCCCN)NC(=O)[C@H](CCC(=O)O)NC(=O)[C@H](CCCNC(=N)N)NC(=O)CNC(=O)[C@H](CCC(=O)O)NC(=O)[C@H](CC(C)C)NC(C)=O)C(C)C)[C@@H](C)CC)[C@@H](C)O)C(N)=O)C(=O)O)C(=O)O)C(=O)O [compound 126] (Ac-LEGREKVRAK(Ac)I[Aib][Aib]EG[Nle]STWS[Aib][Cit]AK(Ac)K([AEEA-AEEA-AEEA-γGlu-γGlu-γGlu-Stearoyl])-NH2) |
| 76 | 26.7 | CCCCCCCCCCCCCCCC(=O)N[C@@H](CCC(=O)N[C@@H](CCC(=O)N[C@@H](CCC(=O)NCCOCCOCC(=O)NCCCC[C@H](NC(=O)COCCOCCNC(=O)[C@H](CCCCN)NC(=O)[C@H](CCCNC(=N)N)NC(=O)C(C)(C)NC(=O)[C@H](CO)NC(=O)[C@H](Cc1c[nH]c2ccccc12)NC(=O)[C@@H](NC(=O)[C@H](CO)NC(=O)[C@H](CCCC)NC(=O)CNC(=O)[C@H](CCC(=O)O)NC(=O)C(C)(C)NC(=O)C(C)(C)NC(=O)[C@@H](NC(=O)[C@H](CCC(N)=O)NC(=O)[C@H](C)NC(=O)[C@H](CCCNC(=N)N)NC(=O)[C@@H](NC(=O)[C@H](CCCCN)NC(=O)[C@H](CCC(=O)O)NC(=O)[C@H](CCCNC(=N)N)NC(=O)CNC(=O)[C@H](CCC(=O)O)NC(=O)[C@H](CC(C)C)NC(C)=O)C(C)C)[C@@H](C)CC)[C@@H](C)O)C(N)=O)C(=O)O)C(=O)O)C(=O)O [compound 12] (Ac-LEGREKVRAQI[Aib][Aib]EG[Nle]STWS[Aib]RK[AEEA]K([AEEA-γGlu-γGlu-γGlu-Palmitoyl])-NH2) |
| 106 | 0.14 | CCCCCCCCCCCCCCCC(=O)N[C@@H](CCC(=O)N[C@@H](CCC(=O)N[C@@H](CCC(=O)N[C@@H](CCC(=O)NCCCC[C@H](NC(=O)CCOCCOCCOCCOCCOCCOCCOCCOCCOCCOCCOCCOCCNC(=O)[C@H](CCCCNC(C)=O)NC(=O)[C@H](CCCCN)NC(=O)[C@H](CCCNC(=N)N)NC(=O)[C@](C)(CCCCN)NC(=O)[C@H](CO)NC(=O)[C@H](Cc1c[nH]c2ccccc12)NC(=O)[C@@H](NC(=O)[C@H](CO)NC(=O)[C@H](CCCC)NC(=O)CNC(=O)[C@H](CCC(=O)O)NC(=O)C(C)(C)NC(=O)C(C)(C)NC(=O)[C@@H](NC(=O)[C@H](CCCCNC(C)=O)NC(=O)[C@H](C)NC(=O)[C@H](CCCNC(=N)N)NC(=O)[C@@H](NC(=O)[C@H](CCCCN)NC(=O)[C@H](CCC(=O)O)NC(=O)[C@H](CCCNC(=N)N)NC(=O)CNC(=O)[C@H](CCC(=O)O)NC(=O)[C@H](CC(C)C)NC(C)=O)C(C)C)[C@@H](C)CC)[C@@H](C)O)C(N)=O)C(=O)O)C(=O)O)C(=O)O)C(=O)O [compound 43] (Ac-LEGREKVRAK(Ac)I[Aib][Aib]EG[Nle]STWS[αMeK]RKK(Ac)[PEG12]K([γGlu-γGlu-γGlu-γGlu-Palmitoyl])-NH2) |
| 92 | 0.21 | CCCCCCCCCCCCCCCCCC(=O)N[C@@H](CCC(=O)N[C@@H](CCC(=O)N[C@@H](CCC(=O)N[C@@H](CCC(=O)N[C@@H](CCC(=O)NCCOCCOCC(=O)NCCOCCOCC(=O)NCCOCCOCC(=O)NCCCC[C@H](NC(=O)[C@H](CCCCN)NC(=O)[C@H](CCCCN)NC(=O)[C@H](CCCNC(=N)N)NC(=O)C(C)(C)NC(=O)[C@H](CO)NC(=O)[C@H](Cc1c[nH]c2ccccc12)NC(=O)[C@@H](NC(=O)[C@H](CO)NC(=O)[C@H](CCC(N)=O)NC(=O)CNC(=O)[C@H](CCC(=O)O)NC(=O)C(C)(C)NC(=O)C(C)(C)NC(=O)[C@@H](NC(=O)[C@H](CCCCNC(C)=O)NC(=O)[C@H](C)NC(=O)[C@H](CCCNC(=N)N)NC(=O)[C@@H](NC(=O)[C@H](CCCCN)NC(=O)[C@H](CCC(=O)O)NC(=O)[C@H](CCCNC(=N)N)NC(=O)CNC(=O)[C@H](CCC(=O)O)NC(=O)[C@H](CC(C)C)NC(C)=O)C(C)C)[C@@H](C)CC)[C@@H](C)O)C(N)=O)C(=O)O)C(=O)O)C(=O)O)C(=O)O)C(=O)O [compound 111] (Ac-LEGREKVRAK(Ac)I[Aib][Aib]EGQSTWS[Aib]RKKK([AEEA-AEEA-AEEA-γGlu-γGlu-γGlu-γGlu-γGlu-Stearoyl])-NH2) |
| 93 | 0.17 | CCCCCCCCCCCCCCCC(=O)N[C@@H](CCC(=O)N[C@@H](CCC(=O)N[C@@H](CCC(=O)NCCOCCOCC(=O)NCCOCCOCC(=O)NCCCC[C@H](NC(=O)[C@H](CCCCN)NC(=O)[C@H](CCCCN)NC(=O)[C@H](CCCNC(=N)N)NC(=O)C(C)(C)NC(=O)[C@H](CO)NC(=O)[C@H](Cc1c[nH]c2ccccc12)NC(=O)[C@@H](NC(=O)[C@H](CO)NC(=O)[C@H](CCCCNC(C)=O)NC(=O)CNC(=O)[C@H](CCC(=O)O)NC(=O)C(C)(C)NC(=O)C(C)(C)NC(=O)[C@@H](NC(=O)[C@H](CCCCNC(C)=O)NC(=O)[C@H](C)NC(=O)[C@H](CCCNC(=N)N)NC(=O)[C@@H](NC(=O)[C@H](CCCCN)NC(=O)[C@H](CCC(=O)O)NC(=O)[C@H](CCCNC(=N)N)NC(=O)CNC(=O)[C@H](CCC(=O)O)NC(=O)[C@H](CC(C)C)NC(C)=O)C(C)C)[C@@H](C)CC)[C@@H](C)O)C(N)=O)C(=O)O)C(=O)O)C(=O)O [compound 61] (Ac-LEGREKVRAK(Ac)I[Aib][Aib]EGK(Ac)STWS[Aib]RKKK([AEEA-AEEA-γGlu-γGlu-γGlu-Palmitoyl])-NH2) |
| 71 | – | CCCCCCCCCCCCCCCCCC(=O)N[C@@H](CCC(=O)N[C@@H](CCC(=O)N[C@@H](CCC(=O)NCCOCCOCC(=O)NCCOCCOCC(=O)NCCOCCOCC(=O)NCCCC[C@H](NC(=O)[C@H](CC(C)C)NC(=O)[C@H](CCCCN)NC(=O)[C@H](CCCNC(=N)N)NC(=O)C(C)(C)NC(=O)[C@H](CO)NC(=O)[C@H](Cc1cccc2ccccc12)NC(=O)[C@@H](NC(=O)[C@H](CO)NC(=O)[C@H](CCCC)NC(=O)CNC(=O)[C@H](CCC(=O)O)NC(=O)C(C)(C)NC(=O)C(C)(C)NC(=O)[C@@H](NC(=O)[C@H](CCCCNC(C)=O)NC(=O)[C@H](C)NC(=O)[C@H](CCCNC(=N)N)NC(=O)[C@@H](NC(=O)[C@H](CCCCN)NC(=O)[C@H](CCC(=O)O)NC(=O)[C@H](CCCNC(=N)N)NC(=O)CNC(=O)[C@H](CCC(=O)O)NC(=O)[C@H](CC(C)C)NC(C)=O)C(C)C)[C@@H](C)CC)[C@@H](C)O)C(N)=O)C(=O)O)C(=O)O)C(=O)O [compound 87] (Ac-LEGREKVRAK(Ac)I[Aib][Aib]EG[Nle]ST[1Nal]S[Aib]RKLK([AEEA-AEEA-AEEA-γGlu-γGlu-γGlu-Stearoyl])-NH2) |
| 79 | 0.09 | CCCCCCCCCCCCCCCCCC(=O)N[C@@H](CCC(=O)NCCOCCOCC(=O)N[C@@H](CCC(=O)N[C@@H](CCC(=O)N[C@@H](CCC(=O)NCCOCCOCC(=O)NCCOCCOCC(=O)NCCCC[C@H](NC(=O)[C@H](CCCCN)NC(=O)[C@H](CCCCN)NC(=O)[C@H](CCCNC(=N)N)NC(=O)C(C)(C)NC(=O)[C@H](CO)NC(=O)[C@H](Cc1cccc2ccccc12)NC(=O)[C@@H](NC(=O)[C@H](CO)NC(=O)[C@H](CCCC)NC(=O)CNC(=O)[C@H](CCC(=O)O)NC(=O)C(C)(C)NC(=O)C(C)(C)NC(=O)[C@@H](NC(=O)[C@H](CCCCNC(C)=O)NC(=O)[C@H](C)NC(=O)[C@H](CCCNC(=N)N)NC(=O)[C@@H](NC(=O)[C@H](CCCCN)NC(=O)[C@H](CCC(=O)O)NC(=O)[C@H](CCCNC(=N)N)NC(=O)CNC(=O)[C@H](CCC(=O)O)NC(=O)[C@H](CC(C)C)NC(C)=O)C(C)C)[C@@H](C)CC)[C@@H](C)O)C(N)=O)C(=O)O)C(=O)O)C(=O)O)C(=O)O [compound 103] (Ac-LEGREKVRAK(Ac)I[Aib][Aib]EG[Nle]ST[1Nal]S[Aib]RKKK([AEEA-AEEA-γGlu-γGlu-γGlu-AEEA-γGlu-Stearoyl])-NH2) |

From patent publication US10988523B2, “Modified lipidated Relaxin B chain peptides and their therapeutic use” (Sanofi, priority 2018, dated 2021)
